Experimental data as given in patent publication US20200347153A1, “METHODS FOR FORMING INCLUSION COMPLEXES WITH HYDROPHILIC BETA-CYCLODEXTRIN DERIVATIVES AND COMPOSITIONS THEREOF” (priority 2019, published 2020).
Entries after “also recorded” stand apart in the source; their conditions may differ.

Columns and labels:
[1] = Solubility in water (statements); assay type: physicochemical
[2] = Stability studies (shelf life, visible changes); assay type: physicochemical
Protocol: The effects of HPBCD on the shelf life stability of each active agent is studied at pre-determined temperatures for 11 weeks. Real time stability is observed at −17° C., 5° C. and 25° C., and accelerated stability is observed at 40° C. For accelerated stability, one day at 40° C. is equivalent to one week, thus the data represents 77 weeks. […] The vials are then placed in a temperature-controlled oven or refrigerator/freezer. The compounds are checked daily and any visible changes are noted.

[3] = Skin permeation and delivery, Franz-type vertical diffusion cell; assay type: in vitro ADME, human; settings: 0-8 hours
Protocol: Skin permeation was evaluated using a custom-fabricated Franz-type vertical diffusion cell (FDC). […] Fluid samples can be withdrawn for analysis from the receptor fluid. […] Membranes were defrosted, washed and subjected to visual inspection before use. Skin delivery and permeation studies were performed on six (6) replicates per Active formulation. A finite dose was applied to the surface of the skin under nonocclusive conditions. Dose volume was 10 μl (18 mg/cm^2). The dose was spread using a blunt glass rod. Receptor chambers were inserted in a dry block with an external magnetic stir bar drive that accommodated up to 15 Franz cells per block. […] Receptor well temperature was maintained at 32±0.5° C.; skin surface temperature was maintained at 30±1.0° C. Receptor wells were sampled at three time points, namely 8 hr, 24 hr and 48 hr; 300 μl was removed, loaded in a 96-well plate, and stored at 4-8° C. prior to analysis. Samples were analyzed within 5 days of collection. There was no further preparation of the samples prior to analysis. […] The membrane was […] […] Retention of the Actives in the epidermis and delivery of Actives to the dermis was measured by extracting the Active from each layer individually at twenty-four hours using dimethyl sulfoxide (DMSO). […] After the LC-MS or UV testing was complete, samples were analyzed using ChemStation software (Agilent).

Phase solubility studies = settings: active with HPBCD; calculated using Eq. (1)
[4] = Differential scanning calorimetry (decomposition); assay type: physicochemical; settings: DSC curve
Protocol: Calorimetric studies are conducted using a Modulated Differential Scanning calorimetry instrument (MDSC). Accurately weighed samples are sealed in Tzero aluminum pans. Empty sealed Tzero aluminum pans are used as a reference. […] Thermal analysis of pure active, excipients, formulations and physical mixtures are performed. Data analysis is performed using Universal Analysis software to measure melting point enthalpy of melting.
Differential scanning calorimetry (DSC) is a thermoanalytical technique useful in detecting phase transitions in solid samples by measuring the amount of heat absorbed or released during such transitions.
DSC analysis was performed using a TA Trios DSC instrument. Samples tested were HPBCD, the Active, and the active-HPBCD inclusion complexes. Each weighed sample for analysis ranged from 2.00 mg to 4.00 mg.

[5] = cited from earlier work
[6] = 25° C., Week 1, visible changes
[7] = 25° C., Week 2, visible changes
[8] = 25° C., Week 3, visible changes

Question: For `C=C(C)[C@@H]1CCC(C)=C[C@H]1c1c(O)cc(CCCCC)cc1O` [CBD, Cannabidiol], which solubility in water [1] is on record?
Answer: completely insoluble in water; also recorded: poor water solubility

Question: And the “Stability of Actives at 25° C.” value [2, 6]?
Answer: 0

Question: What about the “Stability of Actives at 25° C.” value [2, 7] of the same compound?
Answer: 0

Question: What about the “Stability of Actives at 25° C.” value [2, 8] of the same compound?
Answer: 0

Question: What about the “delivered dose, transdermal” value [3] of the same compound?
Answer: no amount of CBD was detected as penetrating through the skin

Question: What about the “association constant (Kc) for complex formation” value (Phase solubility studies) of the same compound?
Answer: 0.42247 M⁻¹

Question: With `CCOC(=O)c1ccc(N)cc1` [Benzocaine] as the compound, how does the “Stability of Actives at 5° C.” value ([2]; 5° C., Week 1, visible changes) read?
Answer: 0

Question: What about the “Stability of Actives at 5° C.” value ([2]; 5° C., Week 2, visible changes) of the same compound?
Answer: 0

Question: And the “Stability of Actives at 5° C.” value ([2]; 5° C., Week 3, visible changes)?
Answer: 0

Question: And the “Stability of Actives at 5° C.” value ([2]; 5° C., Week 4, visible changes)?
Answer: 0

Question: And the “Stability of Actives at 5° C.” value ([2]; 5° C., Week 5, visible changes)?
Answer: 0

Question: What about the “Stability of Actives at 5° C.” value ([2]; 5° C., Week 6, visible changes) of the same compound?
Answer: 0

Question: What about the “Stability of Actives at 5° C.” value ([2]; 5° C., Week 7, visible changes) of the same compound?
Answer: 0

Question: And the “Stability of Actives at 5° C.” value ([2]; 5° C., Week 8, visible changes)?
Answer: 0

Question: What about the “Stability of Actives at 5° C.” value ([2]; 5° C., Week 9, visible changes) of the same compound?
Answer: 0

Question: And the “Stability of Actives at 5° C.” value ([2]; 5° C., Week 10, visible changes)?
Answer: 0

Question: And the “Stability of Actives at 5° C.” value ([2]; 5° C., Week 11, visible changes)?
Answer: 0

Question: What about the “Stability of Actives at 25° C.” value [2, 6] of the same compound?
Answer: 0

Question: What about the “Stability of Actives at 25° C.” value [2, 7] of the same compound?
Answer: 0

Question: And the “Stability of Actives at 25° C.” value [2, 8]?
Answer: 0

Question: What about the “Stability of Actives at 25° C.” value ([2]; 25° C., Week 4, visible changes) of the same compound?
Answer: 0

Question: What about the “Stability of Actives at 25° C.” value ([2]; 25° C., Week 5, visible changes) of the same compound?
Answer: 0

Question: And the “Stability of Actives at 25° C.” value ([2]; 25° C., Week 6, visible changes)?
Answer: 0

Question: What about the “Stability of Actives at 25° C.” value ([2]; 25° C., Week 7, visible changes) of the same compound?
Answer: 0

Question: And the “Stability of Actives at 25° C.” value ([2]; 25° C., Week 8, visible changes)?
Answer: 0

Question: And the “Stability of Actives at 25° C.” value ([2]; 25° C., Week 9, visible changes)?
Answer: 0

Question: And the “Stability of Actives at 25° C.” value ([2]; 25° C., Week 10, visible changes)?
Answer: 0

Question: And the “Stability of Actives at 25° C.” value ([2]; 25° C., Week 11, visible changes)?
Answer: 0

Question: And the “Stability of Actives at 40° C.” value ([2]; 40° C. accelerated stability, Week 1, visible changes)?
Answer: 0

Question: And the “Stability of Actives at 40° C.” value ([2]; 40° C. accelerated stability, Week 2, visible changes)?
Answer: 0

Question: What about the “Stability of Actives at 40° C.” value ([2]; 40° C. accelerated stability, Week 3, visible changes) of the same compound?
Answer: 0

Question: And the “Stability of Actives at 40° C.” value ([2]; 40° C. accelerated stability, Week 4, visible changes)?
Answer: 0

Question: And the “Stability of Actives at 40° C.” value ([2]; 40° C. accelerated stability, Week 5, visible changes)?
Answer: 0

Question: And the “Stability of Actives at 40° C.” value ([2]; 40° C. accelerated stability, Week 6, visible changes)?
Answer: 0

Question: What about the “Stability of Actives at 40° C.” value ([2]; 40° C. accelerated stability, Week 7, visible changes) of the same compound?
Answer: 0

Question: And the “Stability of Actives at 40° C.” value ([2]; 40° C. accelerated stability, Week 8, visible changes)?
Answer: 0

Question: And the “Stability of Actives at 40° C.” value ([2]; 40° C. accelerated stability, Week 9, visible changes)?
Answer: 0

Question: And the “Stability of Actives at 40° C.” value ([2]; 40° C. accelerated stability, Week 10, visible changes)?
Answer: 0

Question: What about the “Stability of Actives at 40° C.” value ([2]; 40° C. accelerated stability, Week 11, visible changes) of the same compound?
Answer: 0

Question: And the “decomposition (DSC)” value [4]?
Answer: 230 °C

Question: What about the “association constant (Kc) for complex formation” value (Phase solubility studies) of the same compound?
Answer: 1.031 M⁻¹

Question: For “1,3-diazacyclopenta-2,4-diene [imidazole]”, which “pKa of conjugate acid (imidazolium ion)” value [5] is on record?
Answer: approximately 7.0

Question: Which results are given for `COc1cc(CCC(=O)CC(=O)CCc2ccc(O)c(OC)c2)ccc1O` [Tetrahydrocurcumin]?
Answer: Stability of Actives at 5° C. ([2]; 1 week): 0; Stability of Actives at 25° C. ([2]; 1 week): 0; Stability of Actives at 40° C. ([2]; 1 week): 0; Stability of Actives at −17 C. ([2]; 1 week): 0; Stability of Actives at 5° C. ([2]; 2 week): 0; Stability of Actives at 25° C. ([2]; 2 week): 0; Stability of Actives at 40° C. ([2]; 2 week): 0; Stability of Actives at −17 C. ([2]; 2 weeks): 0; Stability of Actives at 5° C. ([2]; 3 week): 0; Stability of Actives at 25° C. ([2]; 3 week): 0; Stability of Actives at 40° C. ([2]; 3 week): 0; Stability of Actives at −17 C. ([2]; 3 weeks): 0; Stability of Actives at 5° C. ([2]; 4 week): 0; Stability of Actives at 25° C. ([2]; 4 week): 0; Stability of Actives at 40° C. ([2]; 4 week): 0; Stability of Actives at −17 C. ([2]; 4 weeks): 0; Stability of Actives at 5° C. ([2]; 5 week): 0; Stability of Actives at 25° C. ([2]; 5 week): 0; Stability of Actives at 40° C. ([2]; 5 week): 0; Stability of Actives at −17 C. ([2]; 5 week): 0; Stability of Actives at 5° C. ([2]; 6 week): 0; Stability of Actives at 25° C. ([2]; 6 week): 0; Stability of Actives at 40° C. ([2]; 6 week): 0; Stability of Actives at −17 C. ([2]; 6 week): 0; Stability of Actives at 5° C. ([2]; 7 week): 0; Stability of Actives at 25° C. ([2]; 7 week): 0; Stability of Actives at 40° C. ([2]; 7 week): 0; Stability of Actives at −17 C. ([2]; 7 week): 0; Stability of Actives at 5° C. ([2]; 8 week): 0; Stability of Actives at 25° C. ([2]; 8 week): 0; Stability of Actives at 40° C. ([2]; 8 week): 0; Stability of Actives at −17 C. ([2]; 8 week): 0; Stability of Actives at 5° C. ([2]; 9 week): 0; Stability of Actives at 25° C. ([2]; 9 week): 0; Stability of Actives at 40° C. ([2]; 9 week): 0; Stability of Actives at −17 C. ([2]; 9 week): 0; Stability of Actives at 5° C. ([2]; 10 week): 0; Stability of Actives at 25° C. ([2]; 10 week): 0; Stability of Actives at 40° C. ([2]; 10 week): 0; Stability of Actives at −17 C. ([2]; 10 weeks): 0; Stability of Actives at 5° C. ([2]; 11 week): 0; Stability of Actives at 25° C. ([2]; 11 week): 0; Stability of Actives at 40° C. ([2]; 11 week): 0; Stability of Actives at −17 C. ([2]; 11 weeks): 0
